Consider 7 compounds from US5395624A, “Depigmenting cosmetic and/or dermatological composition containing a di- or tri-caffeoylquinic acid, or a mixture thereof” (L'Oreal, priority 1992, dated 1995).

One series has as its target fungal tyrosinase. As to the kind of experiment: in vitro test of inhibition of tyrosinase activity. The format is biochemical. The conditions noted are these: L-tyrosine with L-dopa co-substrate, pH 6.5, 25° C., dopachrome at 475 nm, read-out: IC 50 (content leading to 50% inhibition of the tyrosinase). The source says:
The di- and tri-caffeoylquinic acids corresponding to general formula (I) have been studied comparatively with caffeic acid in equivalent molar quantities in the in vitro inhibition test of tyrosinase activity.
In this test, visible spectrometry at 475 mn is used to monitor the quantity of dopachrome formed during the chain of reactions by which tyrosine is transformed into melanins. These reactions are catalyzed in vitro using fungal tyrosinase in the presence of a reducing co-substrate (e.g., a small quantity of L-dopa) in order to initiate the hydroxylation reaction of L-tyrosine into L-dopa, which is then catalytically oxidized into dopaquinone, and then into dopachrome which is, an intermediate product, prior to the non-enzymatic oxidation reactions leading to melanin formation.
Accordingly, the concentration of dopachrome formed over time is measured in the presence and absence of the inhibitor.
The inhibition effect is expressed by the lowering of the maximum quantity of dopachrome formed (value of the optical density at 475 nm read on the flat part of the curve) in relation to the quantity obtained in the absence of the inhibitor.
For each compound, the content in micromoles per liter leading to 50% inhibition of the tyrosinase (IC 50) is measured.
A--Phosphate buffer 0.1M pH=6.5 (composition for 200 ml of buffer: 68.5 ml of NaH2 PO4 0.2M+31.5 ml of Na2 HPO4 0.2M+100 ml of water)
B--Mother solution of L-tyrosine at 2×10^-3 M in A
C--Mother solution of L-dopa at 10^-4 M in A
D--Mother solution of fungal tyrosinase at 2,400 units/ml in A
E--Mother solution of the inhibitor at 10^-2 M in ethanol (solutions C and D must be prepared the same day).
homogenize and establish equilibrium at 25° C.
add 0.05 ml of D to the test trough
mix rapidly and observe the kinetics by measuring absorption at 475 nm as a function of time.

The conditions of series [1]: background statement; cited from earlier work.
A further series deals with melanocytes. The conditions noted are these: background statement; cited from earlier work.

For the compound `O=C(C=Cc1ccc(O)c(O)c1)OC1CC(OC(=O)C=Cc2ccc(O)c(O)c2)(C(=O)O)CC(O)C1O` (centres unmarked) [1,3-di-caffeoylquinic acid], at fungal tyrosinase, the IC50 stood at 47 µM.
Same read-out and setting: the figure for `O=C(C=Cc1ccc(O)c(O)c1)OC1CC(O)(C(=O)O)CC(OC(=O)C=Cc2ccc(O)c(O)c2)C1OC(=O)C=Cc1ccc(O)c(O)c1` (centres unmarked) [3,4,5-tri-caffeoylquinic acid] is 29 µM; for `O=C(C=Cc1ccc(O)c(O)c1)OC1CC(O)(C(=O)O)CC(O)C1OC(=O)C=Cc1ccc(O)c(O)c1` (centres unmarked) [3,4-di-caffeoylquinic acid] it is 85 µM; for `O=C(C=Cc1ccc(O)c(O)c1)OC1CC(O)(C(=O)O)CC(OC(=O)C=Cc2ccc(O)c(O)c2)C1O` (centres unmarked) [3,5-di-caffeoylquinic acid] it is 52 µM.
Same read-out and setting: the figure for `O=C(C=Cc1ccc(O)c(O)c1)OC1CC(O)(C(=O)O)CC(O)C1OC(=O)C=Cc1ccc(O)c(O)c1` (centres unmarked) [4,5-di-caffeoylquinic acid] is 45 µM; for `O=C(O)/C=C/c1ccc(O)c(O)c1` [Caffeic acid, reference compound] it is 530 µM.
For `Oc1ccc(O)cc1` [hydroquinone], the irritation result in series [1] was “especially irritating”. For the same compound, in the series on melanocytes, the cytotoxicity for melanocytes entry is “cytotoxic for melanocytes”.
